Experiments:
[1] = Plasma pharmacokinetics after single and multiple oral doses (non-compartmental analysis); type: in vivo, human; details: patients with T2DM; for Tmax,ss / Tmax: median (range)
Experimental: This was a single-center, randomized, double-blind, placebo and positive-controlled, single and multiple oral-dose study. A total of 32 Chinese adults diagnosed with T2DM were recruited for this study and allocated into two dosage groups: 50 mg and 100 mg, each consisting of 16 participants. […] The positive control was designed as open label. […] Subjects underwent medication randomization on day -1, and were assigned the corresponding investigational products. They were orally administered to the drug once every morning on fasting condition for 14 consecutive days. […] After finished the dosing, another OGTT was performed on day 15. Blood samples were collected at designated time points for the analysis of PK/PD and exploratory indicators. Subjects were discharged after completion of the safety assessments on day 19. […] PK parameters were calculated using non-compartmental analysis with Phoenix WinNonlin (version 8.1, Certara, Co., Princeton, NJ, United States). Peak plasma concentration after administration (Cmax) and time to reach Cmax (Tmax) were obtained directly from the observed data, elimination half-life (t1/2) was calculated as ln2/λz using the best fit mode, where λz was the terminal elimination rate constant. Area under the plasma concentration-time curve from zero to the last measurable concentration (AUC0-t) was estimated using the linear trapezoidal method and AUC from zero to infinity (AUC0-∞) was calculated as AUC0-t+Ct/λz, where Ct was the last measured concentration. […] Apparent total plasma clearance after non-intravenous (CL/F) and apparent volume of distribution in terminal phase after non-intravenous (Vz/F) were calculated as Dose/AUC0-∞ and CL/λz, respectively.

plasma active GLP-1 = assay: Plasma active GLP-1 concentration change from baseline (ELISA); type: in vivo, human; details: patients with T2DM; for GLP-1 Baseline (value before dosing): day 1 before dosing; for increase of plasma active GLP-1 AUEC0-24h compared with placebo group: after multiple dosing; for △GLP-1 TRmax,ss / △GLP-1 TRmax: median (range)
Experimental: Blood samples for GLP-1 activity evaluation were collected at the same time points as for PK. 2 mL blood samples were collected for GLP-1 activity detection (20 μL DPP-4i was added to blood-collecting tubes beforehand). The tubes were placed on ice until centrifugation. The blood samples were centrifuged at 2-8°C, 1500 g for 10 minutes within 1 hour after blood collection. After centrifugation, the blood samples were evenly divided into two aliquots and stored at -80 ± 10°C. Plasma active GLP-1 concentrations were determined using a validated ELISA method. Linear calibration curves were obtained in the concentration range of 0.017-276 pM ([31]).
The change of GLP-1 concentration from baseline (△GLP-1) was calculated as follows:
Δ [GLP-1] = [GLP-1] (t) - [GLP-1] (0)
The calculated parameters for GLP-1 activity were as follows: the baseline GLP-1 value before dosing (Baseline), Rmax, TRmax, AUEC0-t, AUEC0-24h, GLP-1 concentration change at 2 h after lunch (△GLP-1-6h), GLP-1 concentration change at 2 h after dinner (△GLP-1-12h), Rmin on day 14, and the average response on day 14 (Ravg).

DPP-4 = biological target: T1, DPP-4 (Homo sapiens, UniProt P27487); assay: Population PK/PD model (Sigmoid-Emax, DPP-4 inhibition); type: in vivo
T1 construct: from tissue; host or cells: human plasma (K2-EDTA blood from T2DM patients)
Excerpt: As a result of data with an absolute value of CWRES greater than 5 being excluded, only 554 blood concentrations of cetagliptin were included in development of the PopPK/PD model. A direct-effect model was used to build the PK/PD model; and the model formula was as follows:
DPP−4 inhibition (%)=Emax*C^γ/(EC50γ+C^γ)

DPP-4 activity = details: healthy subjects; once-daily oral dose of ≧50 mg, multiple doses; cited from earlier work
[2] = design: method as in PMID 34655432; details: healthy subjects; single oral doses of 12.5 to 400 mg; cited from earlier work
[3] = 50 mg oral once daily, day 14, listed as cetagliptin
[4] = 50 mg oral once daily, listed as cetagliptin
[5] = 100 mg oral once daily, day 14, listed as cetagliptin
[6] = 100 mg oral once daily, listed as cetagliptin
[7] = final model estimate, patients with T2DM

T1 sequence (P27487 39-766 limits assumed): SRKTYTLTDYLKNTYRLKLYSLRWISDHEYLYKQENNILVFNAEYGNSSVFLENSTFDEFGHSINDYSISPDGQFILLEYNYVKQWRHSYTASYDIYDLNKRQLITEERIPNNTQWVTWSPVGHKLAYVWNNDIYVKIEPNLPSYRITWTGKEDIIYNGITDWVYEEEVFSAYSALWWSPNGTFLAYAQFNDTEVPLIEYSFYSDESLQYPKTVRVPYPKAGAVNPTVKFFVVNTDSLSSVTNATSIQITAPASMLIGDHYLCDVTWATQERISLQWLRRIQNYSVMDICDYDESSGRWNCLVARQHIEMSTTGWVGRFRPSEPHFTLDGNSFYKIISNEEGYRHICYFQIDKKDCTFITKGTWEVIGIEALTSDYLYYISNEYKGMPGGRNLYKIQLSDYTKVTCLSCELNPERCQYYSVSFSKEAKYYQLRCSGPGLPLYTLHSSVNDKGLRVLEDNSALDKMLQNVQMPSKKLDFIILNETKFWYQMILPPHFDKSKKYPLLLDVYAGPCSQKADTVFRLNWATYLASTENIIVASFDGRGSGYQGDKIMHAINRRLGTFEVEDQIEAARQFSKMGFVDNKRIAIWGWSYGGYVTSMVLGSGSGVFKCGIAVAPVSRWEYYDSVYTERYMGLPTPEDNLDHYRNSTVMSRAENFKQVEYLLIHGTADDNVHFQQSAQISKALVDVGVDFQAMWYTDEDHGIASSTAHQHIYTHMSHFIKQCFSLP

C[C@@H]1c2cnc(C(F)(F)F)n2CCN1C(=O)C[C@H](N)Cc1cc(F)c(F)cc1F.O=P(O)(O)O [Cetagliptin, cetagliptin]
RAUC (accumulation ratio of AUC0-24h, day 14/day 1) ([1]; 50 mg oral once daily): 2.13 ± 0.225 | RCmax (accumulation ratio of Cmax, day 14/day 1) ([1]; 50 mg oral once daily): 2.01 ± 0.417 | AUC0-24h ([1]; 50 mg oral once daily, day 14): 1530 ± 274 ng·h/mL | AUC0-∞ ([1]; 50 mg oral once daily, day 14): 2710 ± 577 ng·h/mL | AUC(0-t) ([1]; 50 mg oral once daily, day 14): 2510 ± 512 ng·h/mL | CLss/F ([1]; 50 mg oral once daily, day 14): 33.6 ± 5.86 L/h | Cavg ([1]; 50 mg oral once daily, day 14): 63.9 ± 11.4 ng/mL | Cmax,ss ([1]; 50 mg oral once daily, day 14): 162 ± 58.1 ng/mL | Vz,ss/F ([1]; 50 mg oral once daily, day 14): 2010 ± 610 L | t1/2 ([1]; 50 mg oral once daily, day 14): 41.9 ± 11.0 h | CLss/F [1, 3]: 33.6 L/h | Tmax,ss ([1]; 50 mg oral once daily, day 14): 1.00 (0.500-5.00) h | RAUC (accumulation ratio of AUC0-24h, day 14/day 1) [1, 4]: 2.13 | RCmax (accumulation ratio of Cmax, day 14/day 1) [1, 4]: 2.01 | AUC0-24h ([1]; 50 mg oral, day 1): 717 ± 86.0 ng·h/mL | Cmax ([1]; 50 mg oral, day 1): 80.5 ± 23.3 ng/mL | Tmax ([1]; 50 mg oral, day 1): 2.00 (1.00-4.00) h | RAUC (accumulation ratio of AUC0-24h, day 14/day 1) ([1]; 100 mg oral once daily): 1.75 ± 0.305 | RCmax (accumulation ratio of Cmax, day 14/day 1) ([1]; 100 mg oral once daily): 1.49 ± 0.542 | AUC0-24h ([1]; 100 mg oral once daily, day 14): 3120 ± 263 ng·h/mL | AUC0-∞ ([1]; 100 mg oral once daily, day 14): 4780 ± 361 ng·h/mL | AUC(0-t) ([1]; 100 mg oral once daily, day 14): 4580 ± 356 ng·h/mL | CLss/F ([1]; 100 mg oral once daily, day 14): 32.2 ± 2.57 L/h | Cavg ([1]; 100 mg oral once daily, day 14): 130 ± 11.0 ng/mL | Cmax,ss ([1]; 100 mg oral once daily, day 14): 300 ± 46.9 ng/mL | Vz,ss/F ([1]; 100 mg oral once daily, day 14): 1640 ± 628 L | t1/2 ([1]; 100 mg oral once daily, day 14): 34.9 ± 12.3 h | CLss/F [1, 5]: 32.2 L/h | Tmax,ss ([1]; 100 mg oral once daily, day 14): 1.00 (0.500-3.00) h | RAUC (accumulation ratio of AUC0-24h, day 14/day 1) [1, 6]: 1.75 | RCmax (accumulation ratio of Cmax, day 14/day 1) [1, 6]: 1.49 | AUC0-24h ([1]; 100 mg oral, day 1): 1830 ± 347 ng·h/mL | Cmax ([1]; 100 mg oral, day 1): 219 ± 72.3 ng/mL | Tmax ([1]; 100 mg oral, day 1): 1.00 (1.00-3.00) h | mean t1/2 (half-life) ([1]; multiple oral doses, range over 50 mg and 100 mg groups): 34.9 to 41.9 h | time of daily dosing after which steady-state conditions were reached ([1]; once daily dosing, trough concentrations days 7, 10, 14): 1 week | GLP-1 Baseline (value before dosing) (plasma active GLP-1; 50 mg group): 0.491 ± 0.815 pM | accumulation ratios of Rmax and AUEC0-24 h for plasma active GLP-1 (plasma active GLP-1; 50 mg once daily): about 1.5 | increase of plasma active GLP-1 AUEC0-24h compared with placebo group (plasma active GLP-1; 50 mg once daily): 2.20 fold | R0h,ss (baseline plasma active GLP-1 on day 14) (plasma active GLP-1; 50 mg oral once daily, day 14): 1.787 ± 1.046 pM | △GLP-1-6h (change at 2 h after lunch) (plasma active GLP-1; 50 mg oral once daily, day 14): 4.145 ± 0.920 pM | △GLP-1-12h (change at 2 h after dinner) (plasma active GLP-1; 50 mg oral once daily, day 14): 3.880 ± 1.641 pM | △GLP-1 AUEC0-24h (plasma active GLP-1; 50 mg oral once daily, day 14): 57.8 ± 22.7 pM·h | △GLP-1 Ravg,ss (plasma active GLP-1; 50 mg oral once daily, day 14): 2.408 ± 0.944 pM | △GLP-1 Rmax,ss (plasma active GLP-1; 50 mg oral once daily, day 14): 5.891 ± 1.692 pM | R0h,ss (baseline plasma active GLP-1 on day 14) (plasma active GLP-1; [3]): 1.787 pM | △GLP-1 TRmax,ss (plasma active GLP-1; 50 mg oral once daily, day 14): 5.00 (5.00-12.00) h | △GLP-1-6h (change at 2 h after lunch) (plasma active GLP-1; 50 mg oral, day 1): 2.457 ± 1.135 pM | △GLP-1-12h (change at 2 h after dinner) (plasma active GLP-1; 50 mg oral, day 1): 2.887 ± 0.981 pM | △GLP-1 AUEC0-24h (plasma active GLP-1; 50 mg oral, day 1): 42.6 ± 10.0 pM·h | △GLP-1 Rmax (plasma active GLP-1; 50 mg oral, day 1): 3.866 ± 1.031 pM | △GLP-1 TRmax (plasma active GLP-1; 50 mg oral, day 1): 5.00 (5.00-12.00) h | GLP-1 Baseline (value before dosing) (plasma active GLP-1; 100 mg group): 0.434 ± 0.393 pM | accumulation ratios of Rmax and AUEC0-24 h for plasma active GLP-1 (plasma active GLP-1; 100 mg once daily): about 1.5 | increase of plasma active GLP-1 AUEC0-24h compared with placebo group (plasma active GLP-1; 100 mg once daily): 3.36 fold | R0h,ss (baseline plasma active GLP-1 on day 14) (plasma active GLP-1; 100 mg oral once daily, day 14): 1.858 ± 1.186 pM | △GLP-1-6h (change at 2 h after lunch) (plasma active GLP-1; 100 mg oral once daily, day 14): 7.006 ± 3.171 pM | △GLP-1-12h (change at 2 h after dinner) (plasma active GLP-1; 100 mg oral once daily, day 14): 5.648 ± 1.810 pM | △GLP-1 AUEC0-24h (plasma active GLP-1; 100 mg oral once daily, day 14): 88.2 ± 29.6 pM·h | △GLP-1 Ravg,ss (plasma active GLP-1; 100 mg oral once daily, day 14): 3.673 ± 1.234 pM | △GLP-1 Rmax,ss (plasma active GLP-1; 100 mg oral once daily, day 14): 7.868 ± 2.565 pM | R0h,ss (baseline plasma active GLP-1 on day 14) (plasma active GLP-1; [5]): 1.858 pM | △GLP-1 TRmax,ss (plasma active GLP-1; 100 mg oral once daily, day 14): 6.00 (5.00-12.00) h | △GLP-1-6h (change at 2 h after lunch) (plasma active GLP-1; 100 mg oral, day 1): 4.269 ± 2.232 pM | △GLP-1-12h (change at 2 h after dinner) (plasma active GLP-1; 100 mg oral, day 1): 3.600 ± 2.410 pM | △GLP-1 AUEC0-24h (plasma active GLP-1; 100 mg oral, day 1): 63.1 ± 34.3 pM·h | △GLP-1 Rmax (plasma active GLP-1; 100 mg oral, day 1): 6.026 ± 3.823 pM | △GLP-1 TRmax (plasma active GLP-1; 100 mg oral, day 1): 5.00 (5.00-12.00) h | tvEC50 (typical value of concentration for 50% of maximal effect) (DPP-4; bootstrap median): 5.120 | tvEmax (typical value of maximum pharmacodynamic effects) (DPP-4; bootstrap median): 91.78 | tvGam (typical value of Hill coefficient) (DPP-4; bootstrap median): 1.008 | tvEC50 (typical value of concentration for 50% of maximal effect) (DPP-4; [7]): 5.120 | tvEmax (typical value of maximum pharmacodynamic effects) (DPP-4; [7]): 91.78 | tvGam (typical value of Hill coefficient) (DPP-4; [7]): 1.008 | sustained DPP-4 inhibition (DPP-4 activity): ≥ 80% | dose-limiting toxicity [2]: no dose-limiting toxicity observed
